Where “and” joins values, the source holds several entries; their conditions need not be identical. Equal values may be shown once. Marks after values point to notes of the source that are not given here.

In the experiment the test system is blood vessels and tissue within region of irradiation. The experiment in a line: Quantitation of FITC-Dextran or TRITC-Dextran fluorescence in blood vessels and tissue (method of Brunner et al.). The format is in vivo, mice of strain C3H. The conditions noted are these: for Fluorecence intensity, Tissue, Baseline / Fluorecence intensity, Vessel, Baseline: prior to photodynamic treatment and probe. As for the experimental part:
At varying time points following the photodynamic activation of MRV6401 or SnET2, a total volume of 0.1 ml of either FITC-Dextran or TRITC-Dextran (obtained from Sigma Scientific, PO Box 14508, St. Louis, Mo., 63178, USA) was administered via the i.v. tail vein route. […] No. FD-2000s) or of molecular weight 150 kD (Sigma Cat. No. FD-150s), and the TRITC-Dextran solution was of molecular weight 155 kD (Sigma Cat. No. T1287). Prior to use, the dextrans were suspended in sterile 5% dextrose in water to a final concentration of 5% weight:volume. In all cases, a total volume of 0.1 ml of the […] solution was administered. The time of administration and the molecular weight of the various dextrans that were injected were as described in Table 6. In some animals the vascular permeability was determined 1-60 minutes following the completion of light irradiation using a dextran probe labeled with either FITC or TRITC, which was then followed 24 hours later by determination using a probe labeled with the other (opposite) fluorescent molecule. That is, if FITC was used immediately following irradiation, TRITC was used 24 hours later, and vice versa. To visualize the fluorescence emitted from the FITC-Dextrans, the Leitz Ploemopak L2 cube (Cat. No. 513-420, E. Leitz Inc., Rockleigh, N.J., 07647, USA) was used. This filter cube was fitted with a BP 450-490 (450 nm-490 nm band pass) excitation filter, the RKP 510 long pass dichroic mirror and a BP 525/20 (525±10 nm) band pass barrier filter. To visualize the fluorescence emitted from the TRITC-Dextrans, the Leitz Ploemopak N2 cube (Cat. No. 513-609, E. Leitz Inc., Rockleigh, N.J., 07647, USA) was used. This filter cube was fitted with a BP 530-560 (530 nm-560 nm band pass) excitation filter, the RKP 580 long pass dichroic mirror and the LP 580 (580 nm long pass) barrier filter. The spectral characteristics of the filters in the L2 and N2 cubes were such that in animals that were injected with both FITC- and TRITC-Dextran (see Table 6), there was no fluorescence “bleed-through” from the other fluorophore. That is, when visualizing TRITC-Dextran there was no fluorescent signal from FITC-Dextran that was present in the field. Similarly, when visualizing FITC-Dextran, there was no fluorescent signal from TRITC-Dextran that was present in the field. The quantitation of the level of either FITC-Dextran or TRITC-Dextran fluorescence in various regions of the chambers was undertaken using a minor modification of a previously described method [J. Brunner, F. Krummenaeur and H -A Lehr, “Quantification of video-taped images in microcirculation research using inexpensive imaging software” (Adobe Photoshop), Microcirculation, Vol. 7, pp 103-107, 2000]. In the studies described by Brunner et al., the imaging software utilized to quantitate the levels of fluorescence intensity in defined regions of interest within the window chamber was Adobe Photoshop. The software utilized for the studies described below was Image-Pro Plus (Media Cybernetics, 8484 Georgia Avenue, Silver Spring, Md. 20910, USA). In all other respects, the analysis undertaken below was the same as that described by Brunner et al. The level of fluorescence that was determined in both intra-vascular and extra-vascular regions using this method was directly proportional to the amount of the fluorescent labeled dextran in that region (Brunner et al., 2000).

Where [1] appears, read: 155 kD TRITC-Dextran, SnET2 0.75 mg/kg i.v., green 530 nm-560 nm 225 J/cm^2, time after TRITC-Dextran administration, region of irradiation, 0.75 mg/kg.
Where [2] appears, read: Animal #12, 2,000 kD FITC-Dextran, MRV6401 0.05 mg/kg i.v., red 660 nm-680 nm 8 J/cm^2.
Setting [3] is: Animal #12, 2,000 kD FITC-Dextran, MRV6401 0.05 mg/kg i.v., red 660 nm-680 nm 8 J/cm^2, time after Dextran administration.
The mark [4] stands for this setting: Animal #13, 155 kD TRITC-Dextran, MRV6401 0.05 mg/kg i.v., red 660 nm-680 nm 8 J/cm^2.
The mark [5] stands for this setting: Animal #13, 155 kD TRITC-Dextran, MRV6401 0.05 mg/kg i.v., red 660 nm-680 nm 8 J/cm^2, time after Dextran administration.

Turning to `CCOC(=O)C1=Cc2c3nc(cc4nc(cc5[n-]c(cc6[n-]c2c(C)c6CC)c(C)c5CC)C(C)=C4CC)[C@@H](C)[C@]13CC.[Cl-].[Cl-].[Sn]` (racemic) [SnET2, tin ethyl etiopurpurin], the “Fluorecence intensity, Tissue, Baseline” value (155 kD TRITC-Dextran, SnET2 0.75 mg/kg i.v., green 530 nm-560 nm 225 J/cm^2, mean ± 1 SD of three readings, 0.75 mg/kg) was 30.5 ± 1.4 and 26.5 ± 0.2. Also, under setting [1], the “Fluorecence intensity, Tissue, 8 min” value is 82.9 ± 1.9 and 73 ± 2.0; the “Fluorecence intensity, Tissue, 20 min” value was 110 ± 2.4 and 120 ± 4.4; the “Fluorecence intensity, Tissue, 1 hr” value is 175.4 ± 3.3 and 127.9 ± 5.5; the “Fluorecence intensity, Tissue, 24 hr” value is 196.4 ± 4.2 and 155 ± 7.1. Under setting [1], the “Fluorecence intensity, Vessel, 8 min” value was 72 ± 1.7 and 105 ± 3.1; the “Fluorecence intensity, Vessel, 20 min” value is 90.6 ± 5.8 and 111 ± 2.7; the “Fluorecence intensity, Vessel, 1 hr” value is 97.7 ± 6.2 and 134 ± 10; the “Fluorecence intensity, Vessel, 24 hr” value is 55 ± 3.1 and 78 ± 1.5.
`C=Cc1c(C)c2[n]3c1=CC1=NC(=Cc4c(C)c5c([n]4[In]3[Cl])C(=C3N=C(C=2)[C@@H](C)[C@@H]3CCC(=O)OC)CC5=O)C(CC)=C1C` [MV6401, indium methyl pyropheophorbide]: under setting [2], the “Fluorecence intensity, Tissue, Baseline” value is listed as 50 ± 1.8 and the “Fluorecence intensity, Vessel, Baseline” value was 50 ± 1.6^c. Further, under setting [3], the “Fluorecence intensity, Tissue, 10 min” value stood at 91.9 ± 4.4; the “Fluorecence intensity, Tissue, 1 hr” value stood at 121.1 ± 2.2; the “Fluorecence intensity, Tissue, 24 hr” value amounted to 135 ± 6.6; the “Fluorecence intensity, Vessel, 10 min” value is reported as 79.1 ± 1.95. Under setting [3], the “Fluorecence intensity, Vessel, 1 hr” value is reported as 83.5 ± 1.9 and the “Fluorecence intensity, Vessel, 24 hr” value is reported as 78.9 ± 2.0. Further, under setting [4], the “Fluorecence intensity, Tissue, Baseline” value is recorded as 59.5 ± 1.87 and the “Fluorecence intensity, Vessel, Baseline” value was 56.6 ± 1.24. Under setting [5], the “Fluorecence intensity, Tissue, 10 min” value amounted to 119.7 ± 1.96; the “Fluorecence intensity, Tissue, 1 hr” value was determined as 122.9 ± 2.6; the “Fluorecence intensity, Tissue, 24 hr” value is reported as 156 ± 1.49; the “Fluorecence intensity, Vessel, 10 min” value is 182.9 ± 2.6. Under setting [5], the “Fluorecence intensity, Vessel, 1 hr” value was 168.7 ± 2.5 and the “Fluorecence intensity, Vessel, 24 hr” value is listed as 46 ± 1.4.

These data come from patent publication US20040044304A1, “Local drug delivery using photosensitizer-mediated and electromagnetic radiation enhanced vascular permeability” (priority 2002, published 2004).
